Like-named read-outs stand apart in the source and are kept apart here. Peptide text beside a SMILES is read from it.
What was measured:
SIV = SIV infectivity assay in H9 cells, RT activity in supernatant; type: cell-based; settings: for SIV infection, result in words: summary of Experiments 1-3
HIV-1 [1] = settings: H9 cells; for Day 10 RT HIV-1 (1:5): supernatant diluted 5-fold; for HIV-1 infection, result in words: summary of Experiments 1-5
Source text: (§1) In this example, the methods that were used to analyze the ability of various tripeptides to inhibit HIV-1, HIV-2, and SIV replication are disclosed. In Experiments 1 and 2, approximately 200,000 H9 cells were infected with HIV-1, HIV-2 or SIV at 25 TCID50 to test the inhibitory effect of the following synthesized tripeptides LKA-NH2, ILK-NH2, GPQ-NH2, GHK-NH2, GKG-NH2, ACQ-NH2, CQG-NH2, ARV-NH2, KAR-NH2, HKA-NH2, GAT-NH2, KAL-NH2, and GPG-NH2. Accordingly, the H9 cells were resuspended with or without the different peptides (approximately 100 μM) in 1 ml of RPMI 1640 medium supplemented with 10% (v/v) heat-inactivated fetal bovine serum (FBS), penicillin (100 u/ml), and streptomycin (100 u/ml), all available through GIBCO, and Polybrene (2 μg/ml), available through Sigma. Thereafter, viruses were added at 25 TCID50 in a volume of 20-30μl. Cells were incubated with virus at 37° C. for 1 hr then pelleted at 170×g for 7 minutes. The cells were then washed three times in RPMI medium without peptides at room temperature and pelleted at 170×g for 7 minutes, as above. After the final wash, the cells were resuspended in RPMI culture medium containing the peptides in a 24-well plate (Costar corporation) and were kept at 37° C. in 5% CO2 with humidity.
(§2) Culture supernatants were collected and analyzed when the medium was changed at 4, 7, 10, and 14 days post infection. To monitor the replication of virus, reverse transcriptase (RT) activity in the supernatants was assayed using a commercially available Lenti-RT activity kit. (Cavidi Tech, Uppsala, Sweden). The amount of RT was determined with the aid of a regression line of standards. The results are presented as absorbance values (OD) and higher absorbance indicates a higher protein concentration and greater viral infection. Syncytium formation was also monitored by microscopic examination.
In Experiment 3, (Table 4), approximately 200,000 H9 cells were infected with HIV-1, HIV-2 or SIV at 25 TCID50 to test the inhibitory effect of different concentrations of peptides GPG-NH2, GKG-NH2 and CQG-NH2 and combinations of these peptides (the indicated concentration corresponds to the concentration of each tripeptide). As above, H9 cells were resuspended with or without the different peptides at varying concentrations in 1 ml of RPMI 1640 medium supplemented with 10% (v/v) heat-inactivated fetal bovine serum (FBS), penicillin (100 u/ml), and streptomycin (100 u/ml), and Polybrene (2 μg/ml). Thereafter, viruses were added at 25 TCID50 in a volume of 20-30 μl. Cells were incubated with the indicated virus at 37° C. for 1 hr then pelleted at 170×g for 7 minutes. The cells were then washed three times in RPMI medium without peptides at room temperature and pelleted at 170×g for 7 minutes, as above. After the final wash, the cells were resuspended in RPMI culture medium containing the peptides in a 24-well plate (Costar corporation) and kept at 37° C. in 5% CO2 with humidity.
Culture supernatants were collected when the medium was changed at 4, 7, and 11 days post infection. As above, the replication of each virus was monitored by detecting reverse transcriptase (RT) activity in the supernatants using the Lenti-RT activity kit. (Cavidi Tech). The amount of RT was determined with the aid of a regression line of standards. The results are presented as absorbance values (OD) and higher absorbance indicates a higher protein concentration and greater viral infection.
In Experiment 4, (Table 5) approximately 200,000 H9 cells were infected with HIV-1 at 25 TCID50 to test the inhibitory effect of different concentrations of peptides GPG-NH2, GKG-NH2 and CQG-NH2 and combinations of these peptides (the indicated concentration corresponds to the total concentration of tripeptide).

HIV-1 [2] = settings: 100 μM, H9 cells
Source text: as §1, §2

HIV-2 = HIV-2 infectivity assay in H9 cells, RT activity in supernatant; type: cell-based; settings: for HIV-2 infection, result in words: summary of Experiments 1-3
[3] = Experiment 3, 5 μM (of each tripeptide)
[4] = Experiment 3, 20 μM (of each tripeptide)
[5] = Experiment 4, 5 μM (total concentration of tripeptide)
[6] = Experiment 4, 15 μM (total concentration of tripeptide)

NCC(=O)N1CCC[C@H]1C(=O)NCC(N)=O [GPG-NH2, glycyl-prolyl-glycine amide] (H-Gly-Pro-Gly-NH2)
Day 7 RT SIV (SIV; Experiment 1, 100 μM): 0.138 OD | Day 10 RT SIV (SIV; Experiment 1, 100 μM): 0.103 OD | Day 7 RT SIV (SIV; Experiment 2, 100 μM): 0.067 OD | Day 10 RT SIV (SIV; Experiment 2, 100 μM): 0.139 OD | Day 7 RT SIV (SIV; [3]): 0.753 OD | Day 10 RT SIV (SIV; [3]): 2.201 OD | Day 7 RT SIV (SIV; [4]): 0.197 OD | Day 10 RT SIV (SIV; [4]): 0.779 OD | SIV infection, result in words (SIV): inhibit or prevent HIV-2 and SIV infection | Day 7 RT HIV-1 (HIV-1 [1]; Experiment 1, 100 μM): 0.068 OD | Day 10 RT HIV-1 (HIV-1 [1]; Experiment 1, 100 μM): 0.074 OD | Day 7 RT HIV-1 (HIV-1 [1]; Experiment 2, 100 μM): 0.090 OD | Day 10 RT HIV-1 (HIV-1 [1]; Experiment 2, 100 μM): 0.143 OD | Day 7 RT HIV-1 (HIV-1 [1]; [3]): 1.527 OD | Day 10 RT HIV-1 (HIV-1 [1]; [3]): 2.398 OD | Day 7 RT HIV-1 (HIV-1 [1]; [4]): 0.239 OD | Day 10 RT HIV-1 (HIV-1 [1]; [4]): 0.692 OD | Day 7 RT HIV-1 (HIV-1 [1]; [5]): 2.970 OD | Day 10 RT HIV-1 (1:5) (HIV-1 [1]; [5]): 1.107 OD | Day 7 RT HIV-1 (HIV-1 [1]; [6]): 0.894 OD | Day 10 RT HIV-1 (1:5) (HIV-1 [1]; [6]): 0.095 OD | Day 7 RT HIV-1 (HIV-1 [1]; Experiment 4, 45 μM): 0.177 OD | Day 10 RT HIV-1 (1:5) (HIV-1 [1]; Experiment 4, 45 μM): 0.034 OD | Day 7 RT HIV-1 (HIV-1 [1]; Experiment 4, 100 μM): 0.150 OD | Day 10 RT HIV-1 (1:5) (HIV-1 [1]; Experiment 4, 100 μM): 0.033 OD | HIV-1 infection, result in words (HIV-1 [1]): inhibited and/or prevented HIV-1 infection | HIV-1 Syncytia (HIV-1 [2]; Experiment 1): neg | HIV-1 Syncytia (HIV-1 [2]; Experiment 2): neg | Day 7 RT HIV-2 (HIV-2; Experiment 1, 100 μM): 0.735 OD | Day 10 RT HIV-2 (HIV-2; Experiment 1, 100 μM): 0.145 OD | Day 7 RT HIV-2 (HIV-2; Experiment 2, 100 μM): 0.093 OD | Day 10 RT HIV-2 (HIV-2; Experiment 2, 100 μM): 0.575 OD | Day 7 RT HIV-2 (HIV-2; [3]): 1.735 OD | Day 10 RT HIV-2 (HIV-2; [3]): 2.329 OD | Day 7 RT HIV-2 (HIV-2; [4]): 0.252 OD | Day 10 RT HIV-2 (HIV-2; [4]): 1.305 OD | HIV-2 infection, result in words (HIV-2): inhibit or prevent HIV-2 and SIV infection

NCCCC[C@H](NC(=O)CN)C(=O)NCC(N)=O [GKG-NH2, glycyl-lysyl-glycine amide] (H-Gly-Lys-Gly-NH2)
Day 7 RT SIV (SIV; Experiment 1, 100 μM): 0.421 OD | Day 10 RT SIV (SIV; Experiment 1, 100 μM): 0.099 OD | Day 7 RT SIV (SIV; Experiment 2, 100 μM): 0.116 OD | Day 10 RT SIV (SIV; Experiment 2, 100 μM): 0.204 OD | Day 7 RT SIV (SIV; [3]): 0.271 OD | Day 10 RT SIV (SIV; [3]): 1.709 OD | Day 7 RT SIV (SIV; [4]): 1.531 OD | Day 10 RT SIV (SIV; [4]): 2.482 OD | Day 7 RT SIV (SIV; Experiment 3, 100 μM): 1.005 OD | Day 10 RT SIV (SIV; Experiment 3, 100 μM): 1.382 OD | SIV infection, result in words (SIV): inhibit or prevent HIV-2 and SIV infection | Day 7 RT HIV-1 (HIV-1 [1]; Experiment 1, 100 μM): 0.080 OD | Day 10 RT HIV-1 (HIV-1 [1]; Experiment 1, 100 μM): 0.074 OD | Day 7 RT HIV-1 (HIV-1 [1]; Experiment 2, 100 μM): 0.145 OD | Day 10 RT HIV-1 (HIV-1 [1]; Experiment 2, 100 μM): 0.345 OD | Day 7 RT HIV-1 (HIV-1 [1]; [3]): 1.587 OD | Day 10 RT HIV-1 (HIV-1 [1]; [3]): 1.683 OD | Day 7 RT HIV-1 (HIV-1 [1]; [4]): 1.616 OD | Day 10 RT HIV-1 (HIV-1 [1]; [4]): 2.036 OD | Day 7 RT HIV-1 (HIV-1 [1]; Experiment 3, 100 μM): 0.823 OD | Day 10 RT HIV-1 (HIV-1 [1]; Experiment 3, 100 μM): 1.520 OD | Day 7 RT HIV-1 (HIV-1 [1]; [5]): 3.303 OD | Day 10 RT HIV-1 (1:5) (HIV-1 [1]; [5]): 1.287 OD | Day 7 RT HIV-1 (HIV-1 [1]; [6]): 3.551 OD | Day 10 RT HIV-1 (1:5) (HIV-1 [1]; [6]): 1.530 OD | Day 7 RT HIV-1 (HIV-1 [1]; Experiment 4, 45 μM): 3.126 OD | Day 10 RT HIV-1 (1:5) (HIV-1 [1]; Experiment 4, 45 μM): 0.410 OD | HIV-1 infection, result in words (HIV-1 [1]): inhibited and/or prevented HIV-1 infection | HIV-1 Syncytia (HIV-1 [2]; Experiment 1): neg | HIV-1 Syncytia (HIV-1 [2]; Experiment 2): neg | Day 7 RT HIV-2 (HIV-2; Experiment 1, 100 μM): 0.160 OD | Day 10 RT HIV-2 (HIV-2; Experiment 1, 100 μM): 0.147 OD | Day 7 RT HIV-2 (HIV-2; Experiment 2, 100 μM): 0.283 OD | Day 10 RT HIV-2 (HIV-2; Experiment 2, 100 μM): 1.637 OD | Day 7 RT HIV-2 (HIV-2; [3]): 1.769 OD | Day 10 RT HIV-2 (HIV-2; [3]): 2.510 OD | Day 7 RT HIV-2 (HIV-2; [4]): 1.759 OD | Day 10 RT HIV-2 (HIV-2; [4]): 2.646 OD | Day 7 RT HIV-2 (HIV-2; Experiment 3, 100 μM): 0.828 OD | Day 10 RT HIV-2 (HIV-2; Experiment 3, 100 μM): 1.947 OD | HIV-2 infection, result in words (HIV-2): inhibit or prevent HIV-2 and SIV infection

Reference: patent US20020091086A1, “Peptides that block viral infectivity and methods of use thereof” (priority 1999, published 2002)
